Like-named read-outs stand apart in the source and are kept apart here.
Experiments:
[1] = system: Caco-2 cell monolayers; assay: Caco-2 permeability assay; format: in vitro ADME
Experimental: (§1) Caco-2 cells were purchased from ReadyCell (Barcelona, Spain). The cells arrived already seeded and differentiated (21-days) in 96-well plates (CacoReady 96-well kits, ReadyCell). Cells were maintained in a cell culture medium: Dulbecco’s modified Eagle’s medium (DMEM) 1 g/L glucose containing 10% fetal bovine serum, 1% L-glutamine 200 mM, and 1% penicillin (10,000 U/mL)–streptomycin (10 mg/mL), all from Merck KGaA. The buffer used in the assay was Hanks Balanced Salt Solution (HBSS, Merck). Control compounds were: sulpiride (low permeability control), metoprolol (high permeability control), talinolol (P-glycoprotein transport (Pgp) substrate control), and GF120918 (Elacridar, Pgp inhibitor), all purchased from Merck KGaA.
(§2) The day of the experiment, the integrity of the cell monolayers was assessed before and after the assay by measuring the transepithelial electrical resistance (TEER). The permeability of the compounds across the cell monolayer was determined by measuring their transport in both directions: apical to basolateral (A → B) and basolateral to apical (B → A) in the absence and presence of Elacridar (a known P-gp inhibitor). The donor working solution was prepared by dilution of the DMSO stock of the test compound or positive control with HBSS (pH 7.4) to 10 µM. For A → B directional transport, the donor working solution (with test compound or positive control, with or without P-gp inhibitor) was added to the apical (A) and HBSS was added to the basolateral (B) compartment. For B → A directional transport, the donor working solution (with positive control or test compound […], with or without P-gp inhibitor) was added to the basolateral (B) and HBSS was added to the apical (A) compartment. The assay was performed with a Hamilton Star Lab robotic system. Samples were collected at t0 and 2 h after incubation (5% CO2, 95% relative humidity, 37 °C) for LC-MS/MS analyses.
(§3) Apparent permeability (Papp) was calculated with the following equation: (5) Papp(cm/sec)=(Vr/C0)×(1/A)×(Cr(t)/t) where Vr is the volume of the solution in the receiving compartment (mL); C0 is the initial test compound concentration in the donor compartment (expressed as area ratio); A is the membrane surface area (0.14 cm^2); Cr (t) is the measured concentration of the receiver well at time t120 (expressed as area ratio); and t is time of incubation (sec).

[2] = lung tissue binding by equilibrium dialysis; format: in vitro ADME; details: preterm rabbit lung homogenate, 4 h, 37 °C
Experimental: In vitro lung tissue binding was also determined by equilibrium dialysis as described above. Preterm rabbit lungs (New Zealand White, BIOIVT) were homogenized using a Precellys tissue homogenizer (Bertin instruments, Montigny-le-Bretonneux, France). Precellys lysing vials (CK28-R, Bertin instruments) were filled with lung and buffer according to the following proportion: 1 g of tissue and 5 mL of ice-cold PBS (dilution 1:6). At the end of the homogenization process, a pool of lung homogenate was prepared mixing equal amount of homogenate from three different donors. Test compounds and the positive control were diluted in the pooled lung homogenate to a final concentration of […] and then dispensed into the red chamber of the RED device inserts. PBS was dispensed into the other side. Upon completion of 4 h of incubation (37 °C under shaking), equal aliquots were removed from each chamber and matrix matched with even volumes of lung homogenate or buffer for LC-MS/MS analyses.
Free and Bound percentages of the compounds were calculated as follows:(3) %Free=Area buffer sample/Area lung homogenate sample×100 (4) % Bound=100−%Free

[3] = system: db/db diabetic mice; design: method as in PMID 11600232, PMID 28656106; details: compared with RGZ and PGZ; cited from earlier work
[4] = plasma protein binding by equilibrium dialysis; format: in vitro ADME; design: fraction unbound at 4 h: dose or concentration left out as unconfirmed; details: 37 °C
Experimental: In vitro plasma protein binding was determined in preterm rabbit plasma (New Zealand White Pooled Gender, BIOIVT, Hicksville, NY, USA) by equilibrium dialysis using Thermo Fisher Scientific Pierce RED rapid equilibrium dialysis devices (Device Inserts 8K MWCO, Thermo Fisher Scientific, Waltham, MA, USA). The assay was performed using a Tecan Evoware robotic system (Männedorf, Switzerland). Test compounds and the positive control were diluted in the pooled plasma (three donors) to a final concentration of […] and then dispensed into the red chamber of the RED device inserts. Phosphate-Buffered Saline (PBS, from Merck KGaA, Darmstadt, Germany) was dispensed into the other side. Upon completion of 4 h of incubation (37 °C under shaking), equal aliquots were removed from each chamber and matrix matched with even volumes of plasma or buffer for LC-MS/MS analyses.
Free and Bound percentages of the compounds were calculated as follows:(1) %Free=Area buffer sample/Area plasma sample×100 (2) % Bound=100−%Free

[5] = molecular target: T1, human PPARγ (Homo sapiens, UniProt P37231); assay: human PPARγ nuclear reporter assay (luciferase); details: reporter cells incubated 24 h, luminescence
T1 sequence (P37231 1-505): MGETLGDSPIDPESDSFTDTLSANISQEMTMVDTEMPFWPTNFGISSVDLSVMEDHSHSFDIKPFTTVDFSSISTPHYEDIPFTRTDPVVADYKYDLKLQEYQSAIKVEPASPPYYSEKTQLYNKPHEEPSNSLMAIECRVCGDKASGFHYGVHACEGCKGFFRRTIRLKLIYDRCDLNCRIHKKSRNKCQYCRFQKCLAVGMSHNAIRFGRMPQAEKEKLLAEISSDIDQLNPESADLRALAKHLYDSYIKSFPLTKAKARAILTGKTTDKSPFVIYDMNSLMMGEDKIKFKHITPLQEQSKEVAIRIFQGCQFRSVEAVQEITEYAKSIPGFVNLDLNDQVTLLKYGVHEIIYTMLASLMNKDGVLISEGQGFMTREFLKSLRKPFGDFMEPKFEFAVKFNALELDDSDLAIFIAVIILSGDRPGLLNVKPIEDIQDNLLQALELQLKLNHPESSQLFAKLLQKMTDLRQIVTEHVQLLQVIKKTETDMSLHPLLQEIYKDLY
Experimental: A human PPARγ nuclear reporter assay was purchased from Indigo Biosciences Inc. (Cat. #IB00101, State College, PA, USA) and was performed according to the manufacturer’s instructions. Briefly, the reporter cells of the assays include a luciferase reporter gene functionally linked to a PPARγ-responsive promoter. Thus, quantifying changes in luciferase expression in the treated reporter cells provides a sensitive surrogate measure of the changes in PPARγ activity. […] A sigmoidal dose–response analysis was performed to determine the half-maximal effective concentration (EC50) values for each TZD (GraphPad Prism 8.4.3, San Diego, CA, USA).

[6] = Caco-2 permeability assay; format: in vitro ADME; details: human, apical to basolateral
Experimental: as §1, §2, §3

[7] = system: patients with type 2 diabetes; details: type II diabetes patients, compared with RZG; cited from earlier work
[8] = Caco-2 permeability assay; format: in vitro ADME; details: human, basolateral to apical

SMILES | Papp (A–B) ([1]; apical to basolateral, 10 µM, 2 h, without Pgp inhibitor) [×10⁻⁶ cm/s] | Papp with Pgp Inhibitor (A–B) ([1]; apical to basolateral, with Elacridar) [×10⁻⁶ cm/s] | Papp (B–A) ([1]; basolateral to apical, 2 h, without Pgp inhibitor) [×10⁻⁶ cm/s] | Papp with Pgp Inhibitor (B–A) ([1]; basolateral to apical, with Elacridar) [×10⁻⁶ cm/s] | Lung Tissue Binding (%) [2] [%] | plasma glucose and TG reductions [3] | Plasma Protein Binding (%) ([4]; preterm rabbit plasma, 4 h) | EC50 [5] [nM] | Papp A→B at 2 h, 10 µM ([6]; Caco-2, pH 7.4, with Elacridar (GF120918), concentration not given, with Elacridar, read-out: Papp with Pgp Inhibitor (A–B)) [×10⁻⁶ cm/s] | Papp A→B at 2 h, 10 µM ([6]; Caco-2, pH 7.4, 10 µM, 2 h, without Pgp inhibitor, read-out: Papp (A–B)) [×10⁻⁶ cm/s] | plasma triglycerides [7] | Papp B→A at 2 h, 10 µM ([8]; Caco-2, pH 7.4, with Elacridar (GF120918), concentration not given, with Elacridar, read-out: Papp with Pgp Inhibitor (B–A) (converted)) [×10⁻⁶ cm/s] | Papp B→A at 2 h, 10 µM ([8]; Caco-2, pH 7.4, 2 h, without Pgp inhibitor, read-out: Papp (B–A) (converted)) [×10⁻⁶ cm/s] | fraction unbound at 4 h ([4]; both sexes, New Zealand White, preterm rabbit plasma (pooled))
Cc1nn(CCOc2ccc(CC3SC(=O)NC3=O)cc2)c(=O)c2ccccc12 (stereo not drawn) [DRF-2546] | 22.9 ± 0.3 | 28.6 ± 1.5 | 18.7 ± 8 | 15.8 ± 3.4 | 91.8 ± 1.8 | superior | 98.4 ± 0.3 | 602 | – | – | – | – | – | –
CCc1ccc(CCOc2ccc(CC3SC(=O)NC3=O)cc2)nc1 (stereo not drawn) [PGZ, pioglitazone] | – | – | – | – | 95.6 ± 2.1 | – | – | – | 12.3 | 11.8 | significant reduction | 25.4 | 15.3 | 0.033
